Measured values from patent US7033829B2, “Method to inhibit cell growth using oligonucleotides” (Trustees of Boston University, priority 2000, dated 2006).
Oligonucleotides are written 5' to 3', each unit as a sugar letter and its base; * is a phosphorothioate linkage, no mark a phosphodiester; rarer units and linkages stand in square brackets, end groups in braces. Plain capitals give the bases only. d = 2'-deoxy (DNA); {P} = phosphate

Experiments:
p53 [1] = molecular target: p53 (Homo sapiens, UniProt P04637); test: p53 assay using hGH reporter plasmid in keratinocytes; type: cell-based; set-up: expressed in transfected cells; vector from Dr. Bert Vogelstein; settings: 100 μM; 24 hours
Procedure: Transfection was performed in the presence of 100 μM pTpT (Midland Certified Reagent Company, Midland, Tex.) or an equal volume of diluent. At the same time, the PSV-β-galactosidase control vector (Promega, Madison, Wis.) was co-transfected to determine the transfection efficiency (Norton and Coffin, 1985). Four hours after transfection, the medium was removed and replaced with K-Stim medium with or without 100 μM pTpT. Twenty-four hours after transfection and pTpT treatment, 400 μl of the medium was harvested from each 35 mm culture dish, and 100 μl of ^125I-hGH antibody solution (Nichols Institute Diagnostics, San Juan Capistrano, Calif.) was added to detect secreted hGH as described below. The cells were harvested in a Reporter Lysis Buffer (Promega) using a protocol provided by the manufacturer, and 150 μl of this lysate was used for the β-galactosidase assay using a β-galactosidase assay kit (Promega). Samples from each of triplicate culture dishes were evaluated for hGH and β-galactosidase synthesis.
To confirm the activation of p53 by pTpT in a second assay, a reporter plasmid expressing the human growth hormone (hGH) gene under the influence of a p53 inducible promoter was employed. Activation of p53 increases its binding to the consensus sequence in the plasmid, leading to transcription of the hGH coding sequence and ultimately to secretion of hGH into the medium.

[2] = system: Human cervical carcinoma cells (HeLa cells); test: Cell growth of HeLa cells; type: cell-based; settings: 100 μM; 1, 4 and 6 days after dosage
Procedure: Human cervical carcinoma cells (HeLa cells) were maintained in DME+10% calf serum and dosed with either water (diluent) or 100 μM T2. Cells were collected 1, 4 and 6 days after dosage and counted by Coulter™ counter.

[3] = system: tumor necrosis factor alpha gene (TNFα); test: Northern blot of TNFα in keratinocytes; type: cell-based, human; settings: 24–72 hours
Excerpt: This immunomodulatory cytokine, known to be induced by UV irradiation, may thus be induced by T2. Use of locally applied DNA fragments, deoxynucleotides, dinucleotides, or dinucleotide dimers is useful in immunomodulation of cutaneous reactions and in treatment or prevention of diseases or conditions involving immune mediators.

LacZ reporter plasmid = test: UV-induced mutation frequency in LacZ transgenic mice; type: in vivo
Excerpt: Transgenic mice carrying multiple genomic copies of a LacZ reporter plasmid were used. One hundred μM pTpT in polypropyleneglycol was applied to one ear and vehicle alone to the other ear, daily for four days. On the fifth day, both ears were exposed to 100 mJ/cm^2 UVB light. This procedure was repeated weekly for 3, 5 or 7 weeks (3 mice/group). One week after the final irradiation, LacZ plasmids were harvested from the ear epidermis. Using methods well known in the art, the plasmids were recovered from genomic DNA by restriction enzyme digestion and specific binding to the LacI protein. Mutant LacZ plasmids were positively selected by transfection into bacteria and growth on selective medium and the mutation frequency was determined.

[4] = system: p53-null H1299 lung carcinoma cells; test: Cell growth of p53-null H1299 cells; type: cell-based, human; settings: 100 μM; days 1–4
Excerpt: Both the GADD 45 and SDI 1 genes are known to be transcriptionally regulated by the tumor suppressor protein p53. After UV- and γ-irradiation, as well as treatment of cells with DNA-damaging chemical agents, there is a rapid stabilization, phosphorylation and nuclear accumulation of p53 after which this protein binds to specific promoter consensus sequences and modulates the transcription of regulated genes. […] In order to determine whether the inhibitory effect of the dinucleotide pTpT on cell proliferation is mediated in part through p53, the growth response of a p53 null cell line, H1299 lung carcinoma cells, was examined. The p53-null H1299 cells (Sanchez, Y. et al., Science 271:357–360 (1996)) were maintained in DMEM with 10% calf serum. Preconfluent cultures were given fresh medium supplemented with either 100 μM pTpT or diluent. Cells were collected on consecutive days by trypsinization, and counted by Coulter™ counter.

p53 [5] = test: p53 immunoperoxidase staining in fibroblasts; type: cell-based, human; settings: normal neonatal fibroblasts; 100 μM; within 24 hours
Procedure: The effect of pTpT on the level and intracellular distribution of p53 in normal neonatal fibroblasts was examined by immunoperoxidase staining using a p53-specific monoclonal antibody (mAb 421, Oncogene, Cambridge, Mass.). Preconfluent cultures were treated with either 100 μM pTpT or diluent for 24 hours before cell staining. Cells were first fixed for one minute in Histochoice fixative (Amresco, Solon, Ohio) followed by a five-minute rinse in PBS. p53 was detected using the Vectastain Elite ABC kit (Vector Laboratories, Burlingame, Calif.) and the p53-specific monoclonal antibody mAb 421.

[6] = system: serine 15-phosphorylated p53, E2F1 (cells lacking functional ATM); test: Western blot of p53 serine 15 phosphorylation and E2F1 in AT fibroblasts; type: cell-based, human; settings: 40 μM; 48 hours
Procedure: Because the serine 15 site on p53 is known to be phosphorylated in an ATM-dependent manner after exposure to ionizing radiation (IR), we wished to examine the role of ATM in E2F1 induction and p53 serine 15 phosphorylation in response to the 11 mer-1. Fibroblasts from a patient with ataxia telangiectasia (AT) known to lack functional ATM protein, and age-matched normal control fibroblasts (N) were treated with either diluent, 40 μM 11mer-1, sham irradiation or IR (10 Gy). Cells were collected 3 hours (sham or IR) or 48 hours (diluent, 11mer-1) for western blot analysis to detect serine 15-phosphorylated p53 and total p53. In normal fibroblasts, the 11mer-1 induced a 10–15 fold increase in the level p53 phosphorylation on serine 15 compared to diluent-treated controls.

[7] = system: E2F1, p73, Mart-1, tyrosinase, TRP-1 and gp-100; test: Western blot of MM-AN melanoma cells; type: cell-based, human
Procedure: Proteins were analyzed by denaturing polyacrylamide gel electrophoresis (SDS-PAGE), using 10% polyacrylamide, and western blot analysis was done with an E2F1-specific monoclonal antibody (KH95 Santa Cruz Biotechnology, Santa Cruz, Calif.), and p73 analyzed using a polyclonal antibody (AB-4 from Oncogene Research Products, San Diego, Calif.). […] In order to determine the contribution of p73 to cell death, MM-AN melanoma cells were stably transfected with a dominant negative p73 (p73DN) (Irwin et al., Nature 402:645–648) construct or empty vector as a control (p73^DN-containing vector a gift from Dr. William Kaelin, Dana Farber Institute, Boston) and paired cultures were supplemented with 40 μM 11mer-1 or diluent alone, then harvested at 72 hours for FACS analysis. […] The above-mentioned differentiation markers are expressed in normal human melanocytes. It appears that the loss of expression of these antigens is a mechanism that a subset of human melanomas uses to escape immunosurveillance defenses. Several peptides from these antigens are targets of tumor infiltrating cytotoxic lymphocytes. Encouraging results have been obtained in vivo with different vaccination strategies using antigenic peptides from the above antigens.

Chain of p53 (Homo sapiens, UniProt P04637) (P04637 whole entry): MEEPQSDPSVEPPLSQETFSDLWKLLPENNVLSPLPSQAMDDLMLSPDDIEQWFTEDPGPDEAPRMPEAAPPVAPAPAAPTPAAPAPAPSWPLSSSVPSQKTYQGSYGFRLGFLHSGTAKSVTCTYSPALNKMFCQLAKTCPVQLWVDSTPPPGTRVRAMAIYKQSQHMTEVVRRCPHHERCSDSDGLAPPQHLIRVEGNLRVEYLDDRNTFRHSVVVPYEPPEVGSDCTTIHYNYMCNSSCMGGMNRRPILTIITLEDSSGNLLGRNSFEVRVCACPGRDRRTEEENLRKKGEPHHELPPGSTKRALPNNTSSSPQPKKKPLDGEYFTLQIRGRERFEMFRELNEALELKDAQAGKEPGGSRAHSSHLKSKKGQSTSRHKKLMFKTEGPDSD

| Substance | increase in hGH secretion compared to diluent-treated cells (p53 [1]) | cell growth rate [2] | TNFα gene expression (Northern blot) [3] | mutation frequency (LacZ reporter plasmid; 100 μM topical, weekly UVB, after 3 weeks (diluent 293)) | lower mutation frequency than diluent treated skin (LacZ reporter plasmid; after 3, 5, and 7 weeks) | mutation frequency (LacZ reporter plasmid; after 5 weeks (diluent 216)) | mutation frequency (LacZ reporter plasmid; after 7 weeks (diluent 322)) | proliferation compared to diluent-treated controls [4] | intranuclear p53 (p53 [5]) | increase in p53 phosphorylation on serine 15 [6] [%] | induction of E2F1 and p73 ([7]; 40 μM) | differentiation markers Mart-1, tyrosinase, TRP-1 and gp-100 ([7]; 48–72 hours after treatment) |
| --- | --- | --- | --- | --- | --- | --- | --- | --- | --- | --- | --- | --- |
| thymidine dinucleotide [pTpT] | 45%±25% | marked decreases in cell growth rate | induction of the tumor necrosis factor alpha gene | 200 | 20–30% | 155 | 261 | no inhibition of proliferation | an increase in intranuclear p53 |  |  |  |
| pGTTAGGGTTAG (DNA {P}-dGdTdTdAdGdGdGdTdTdAdG) [SEQ ID NO: 5] |  |  |  |  |  |  |  |  |  | < 50 | the same pattern of induction for E2F1 and p73 as observed for Jurkat cells | upregulated |
